The supplement of paper PMC10307832

Assays:
Assay in all cases: relative viability (nuclei count vs DMSO), 5 days (fraction); higher = more cells survive
[1] = compound: CC1=CC(=NN1)NC2=CC(=NC(=N2)/C=C/C3=CC=CC=C3)N4CCN(CC4)C + NC(=O)Nc1cc(-c2cccc(F)c2)sc1C(=O)N[C@H]1CCCNC1 [AZD7762] (partner 0.2 µM)
In short: (§1)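 Relative viability was taken as the ratio of nuclei in treated wells to nuclei in vehicle wells. Lung cancer cell lines in 1536-well plates received compounds by pin tool one day after seeding, either one drug alone or a fixed anchor-drug dose plus five library-drug doses (not always all listed) in √10 steps. Nuclei were counted on 4× images after 5 days of treatment, and values are medians of duplicate plates.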

Bortezomib + AZD7762 = compound: CC(C)C[C@H](NC(=O)[C@H](Cc1ccccc1)NC(=O)c1cnccn1)B(O)O [Bortezomib] + NC(=O)Nc1cc(-c2cccc(F)c2)sc1C(=O)N[C@H]1CCCNC1 [AZD7762] (partner 0.2 µM)
In short: as §1

Obatoclax + Pemetrexed = compound: COC1=CC(c2cc3ccccc3[nH]2)=N/C1=C\c1[nH]c(C)cc1C [Obatoclax] + Nc1nc2[nH]cc(CCc3ccc(C(=O)N[C@@H](CCC(=O)O)C(=O)O)cc3)c2c(=O)[nH]1 [Pemetrexed] (partner 0.2 µM)
In short: as §1

Bortezomib + Luminespib = compound: CC(C)C[C@H](NC(=O)[C@H](Cc1ccccc1)NC(=O)c1cnccn1)B(O)O [Bortezomib] + CCNC(=O)c1noc(-c2cc(C(C)C)c(O)cc2O)c1-c1ccc(CN2CCOCC2)cc1 [Luminespib] (partner 0.01 µM)
In short: as §1

Cell Line | relative viability ([1]; first compound 0.08 µM) | relative viability ([1]; first compound 0.253 µM) | relative viability ([1]; first compound 0.8 µM) | relative viability ([1]; first compound 2.53 µM) | relative viability ([1]; first compound 8 µM) | relative viability (Bortezomib + AZD7762; first compound 0.0002 µM) | relative viability (Bortezomib + AZD7762; first compound 0.000632 µM) | relative viability (Bortezomib + AZD7762; first compound 0.002 µM) | relative viability (Bortezomib + AZD7762; first compound 0.006325 µM) | relative viability (Bortezomib + AZD7762; first compound 0.02 µM) | relative viability (Obatoclax + Pemetrexed; first compound 0.01 µM) | relative viability (Obatoclax + Pemetrexed; first compound 0.03162 µM) | relative viability (Obatoclax + Pemetrexed; first compound 0.1 µM) | relative viability (Obatoclax + Pemetrexed; first compound 0.3162 µM) | relative viability (Obatoclax + Pemetrexed; first compound 1 µM) | relative viability (Bortezomib + Luminespib; first compound 0.0002 µM) | relative viability (Bortezomib + Luminespib; first compound 0.000632 µM) | relative viability (Bortezomib + Luminespib; first compound 0.002 µM) | relative viability (Bortezomib + Luminespib; first compound 0.006325 µM) | relative viability (Bortezomib + Luminespib; first compound 0.02 µM)
NCI-H1734 | 0.524 | 0.508 | 0.537 | 0.184 | 0.12 | 0.563 | 0.541 | 0.57 | 0.116 | 0.0989 | 0.419 | 0.427 | 0.359 | 0.415 | 0.364 | 0.181 | 0.186 | 0.178 | 0.129 | 0.101
NCI-H1755 | 0.448 | 0.471 | 0.396 | 0.296 | 0.184 | 0.442 | 0.425 | 0.508 | 0.287 | 0.2 | 0.444 | 0.612 | 0.433 | 0.413 | 0.452 | 0.494 | 0.418 | 0.417 | 0.21 | 0.181
NCI-H1792 | 0.659 | 0.732 | 0.665 | 0.132 | 0.0222 | 0.657 | 0.693 | 0.602 | 0.344 | 0.0353 | 0.909 | 0.58 | 0.459 | 0.799 | 0.386 | 0.321 | 0.452 | 0.282 | 0.451 | 0.229
NCI-H1793 | 0.412 | 0.373 | 0.452 | 0.129 | 0.0904 | 0.512 |  | 0.394 | 0.803 | 0.0834 | 0.91 | 0.924 | 0.727 | 0.838 | 0.878 | 0.184 | 0.151 | 0.171 | 0.204 | 0.127
NCI-H1915 | 0.76 | 0.698 | 0.754 | 0.304 | 0.352 | 0.751 | 0.726 | 0.715 | 0.163 | 0.0511 | 0.486 | 0.496 | 0.482 | 0.535 | 0.517 | 0.724 | 0.732 | 0.721 | 0.0571 | 0.0533
NCI-H1944 | 0.539 | 0.524 | 0.469 | 0.229 | 0.117 | 0.508 | 0.511 | 0.637 | 0.295 | 0.166 | 0.649 | 0.551 | 0.638 | 0.608 | 0.602 | 0.715 | 0.697 | 0.763 | 0.548 | 0.167
NCI-H1975 | 0.692 | 0.872 | 0.746 | 0.429 | 0.174 | 0.727 | 0.652 | 0.319 | 0.172 | 0.194 | 0.298 | 0.297 | 0.3 | 0.309 | 0.208 | 0.192 | 0.122 | 0.158 | 0.138 | 0.177
NCI-H1993 | 0.712 | 0.622 | 0.775 | 0.33 | 0.3 | 0.838 | 0.877 |  | 0.333 | 0.324 | 0.593 | 0.544 | 0.727 | 0.545 | 0.346 | 0.799 | 0.807 | 0.991 | 0.428 | 0.4
NCI-H2085 | 0.95 | 1.09 | 0.882 | 0.272 | 0.186 | 1.04 | 0.907 | 1.07 | 0.881 | 0.225 | 0.886 | 1 | 0.705 | 0.709 | 0.298 | 0.482 | 0.36 | 0.4 | 0.178 | 0.235
NCI-H2087 | 1.27 | 1.4 | 1.39 | 0.703 | 0.176 | 1.3 | 1.23 | 1.19 | 0.0709 | 0.0403 | 0.623 | 0.675 | 0.688 | 0.674 | 0.473 | 0.163 | 0.145 | 0.164 | 0.0644 | 0.0565
